Read-outs that look alike come from different tables or passages of the source.
Target: T1, Androgen Receptor (Homo sapiens, UniProt P10275)
T1 construct: endogenous in cells; host or cells: VCaP cells
T1 sequence (P10275 1-920): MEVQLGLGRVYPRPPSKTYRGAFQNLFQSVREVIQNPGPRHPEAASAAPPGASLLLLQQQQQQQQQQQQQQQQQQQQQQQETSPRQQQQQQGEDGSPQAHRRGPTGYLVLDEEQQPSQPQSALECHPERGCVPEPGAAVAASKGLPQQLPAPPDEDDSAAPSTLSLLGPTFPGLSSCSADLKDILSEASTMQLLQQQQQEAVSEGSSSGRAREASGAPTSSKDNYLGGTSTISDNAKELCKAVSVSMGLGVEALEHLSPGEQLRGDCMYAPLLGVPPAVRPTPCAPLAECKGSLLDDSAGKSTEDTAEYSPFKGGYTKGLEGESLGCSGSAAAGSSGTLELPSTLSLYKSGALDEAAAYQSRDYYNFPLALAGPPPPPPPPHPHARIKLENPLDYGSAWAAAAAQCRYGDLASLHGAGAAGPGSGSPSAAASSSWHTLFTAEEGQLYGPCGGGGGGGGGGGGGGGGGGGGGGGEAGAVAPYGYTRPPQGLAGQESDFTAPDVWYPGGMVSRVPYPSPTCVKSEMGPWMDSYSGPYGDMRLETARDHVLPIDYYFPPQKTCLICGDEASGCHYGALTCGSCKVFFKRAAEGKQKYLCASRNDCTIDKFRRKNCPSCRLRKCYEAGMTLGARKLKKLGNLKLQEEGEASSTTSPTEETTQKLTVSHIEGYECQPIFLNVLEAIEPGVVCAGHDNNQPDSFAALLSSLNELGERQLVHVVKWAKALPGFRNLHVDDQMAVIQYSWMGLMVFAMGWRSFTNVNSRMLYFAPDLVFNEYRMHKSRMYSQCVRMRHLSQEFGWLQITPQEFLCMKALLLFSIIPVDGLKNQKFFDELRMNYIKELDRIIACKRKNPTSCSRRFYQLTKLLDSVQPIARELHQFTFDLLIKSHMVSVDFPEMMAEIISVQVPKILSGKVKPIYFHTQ
Experiment: Androgen Receptor ELISA assay (PathScan AR ELISA) in VCaP cells: AR degradation, Dmax and DC50
Assay type: cell-based
Procedure, shortened: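 VCaP cells, 30,000/well, grown ≥3 days in phenol red-free RPMI with 5% charcoal-stripped FBS; compound added in 0.1% DMSO with 0.1 nM R1881, 7 half-log doses, 24 h. Lysate AR quantified by PathScan sandwich ELISA, HRP/TMB read at 450 nm, giving DC50 and Dmax.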

[1] = read-out: VCaP DC50; VCaP cells; Table 34
[2] = VCaP cells; Table 34; read-out: VCaP DC50
[3] = VCaP, VCaP cells; Table 34; read-out: VCaP Dmax (%)
[4] = read-out: VCaP DC50; VCaP cells; Table 35
[5] = VCaP cells; Table 35; read-out: VCaP DC50
[6] = VCaP, VCaP cells; Table 35; read-out: VCaP Dmax (%)

SMILES	Dmax (VCaP, read-out: VCaP Dmax (%)) [%]	DC50 [4] [nM]	DC50 [5] [nM]	Dmax [6] [%]	also measured
Cc1ncsc1-c1ccc(CNC(=O)[C@@H]2C[C@@H](O)CN2C(=O)[C@@H](NC(=O)COc2ccc(OCC#Cc3ccc(N4C(=S)N(c5ccc(C#N)c(C(F)(F)F)c5)C(=O)C4(C)C)cc3)cc2)C(C)(C)C)cc1 [Example 413]	51 to 70				DC50 [1]: < 50 nM
CCOC(=O)c1ncsc1-c1ccc(CNC(=O)[C@@H]2C[C@@H](O)CN2C(=O)[C@@H](NC(=O)COCCCCOc2ccc(-c3ccc(N4C(=S)N(c5ccc(C#N)c(C(F)(F)F)c5)C(=O)C4(C)C)cc3)cc2)C(C)(C)C)cc1 [Example 414]	< 25				DC50 [1]: < 50 nM
CCc1ncsc1-c1ccc(CNC(=O)[C@@H]2C[C@@H](O)CN2C(=O)[C@@H](NC(=O)COCCCCNc2ccc(C(=O)N[C@H]3C(C)(C)[C@H](Oc4ccc(C#N)c(Cl)c4)C3(C)C)cc2)C(C)(C)C)cc1 [Example 415]					DC50 [2]: < 50 nM; Dmax [3]: > 71%
Cc1ncsc1-c1ccc(CNC(=O)[C@@H]2C[C@@H](O)CN2C(=O)[C@@H](NC(=O)COCCCCNc2ccc(C(=O)N[C@H]3C(C)(C)[C@H](Oc4ccc(C#N)c(Cl)c4)C3(C)C)cn2)C(C)(C)C)cc1 [Example 416]					DC50 [2]: 51 to 500 nM; Dmax [3]: 26 to 50%
Cc1ncsc1-c1ccc(CNC(=O)[C@@H]2C[C@@H](O)CN2C(=O)[C@@H](NC(=O)COc2ccccc2CCCOc2ccc(C(=O)N[C@H]3C(C)(C)[C@H](Oc4ccc(C#N)c(Cl)c4)C3(C)C)cc2)C(C)(C)C)cc1 [Example 417]					DC50 [2]: < 50 nM; Dmax [3]: > 71%
Cc1ncsc1-c1ccc([C@H](C)NC(=O)[C@@H]2C[C@@H](O)CN2C(=O)[C@@H](C(C)C)n2cc(OCCCOCCC(O)CCOc3ccc(N4C(=S)N(c5ccc(C#N)c(C(F)(F)F)c5)C(=O)C4(C)C)cc3)cn2)cc1 (some centres unmarked) [Example 418]	51 to 70	< 50			
Cc1ncsc1-c1ccc([C@H](C)NC(=O)[C@@H]2C[C@@H](O)CN2C(=O)[C@H](C(C)C)n2cc(OCCCOCCC(O)CCOc3ccc(N4C(=S)N(c5ccc(C#N)c(C(F)(F)F)c5)C(=O)C4(C)C)cc3)cn2)cc1 (some centres unmarked) [Example 419]	26 to 50	< 50			
Cc1ncsc1-c1ccc(CNC(=O)[C@@H]2C[C@@H](O)CN2C(=O)[C@@H](NC(=O)COCC2CCN(c3ccc(-c4ccc(N5C(=S)N(c6ccc(C#N)c(C(F)(F)F)c6)C(=O)C5(C)C)cc4)cn3)CC2)C(C)(C)C)cc1 [Example 420]	51 to 70	51 to 500			
Cc1ncsc1-c1ccc([C@H](C)NC(=O)[C@@H]2C[C@@H](O)CN2C(=O)[C@@H](NC(=O)c2cc3ccc(OC4CN(c5ncc(C(=O)N[C@H]6C(C)(C)[C@H](Oc7ccc(C#N)c(Cl)c7)C6(C)C)cn5)C4)cc3o2)C(C)(C)C)cc1 [Example 422]			< 50	> 71	
Cc1ncsc1-c1ccc([C@H](C)NC(=O)[C@@H]2C[C@@H](O)CN2C(=O)[C@@H](C(C)C)n2cc(Oc3cccc(OCCCCCOc4ccc(N5C(=S)N(c6ccc(C#N)c(C(F)(F)F)c6)C(=O)C5(C)C)cc4)c3)cn2)nc1 [Example 424]	< 25	> 501			
Cc1nccn1-c1ccc([C@H](C)NC(=O)[C@@H]2C[C@@H](O)CN2C(=O)[C@@H](NC(=O)COCCNc2ccc(-c3ccc(C(=O)N[C@H]4C(C)(C)[C@H](Oc5ccc(C#N)c(Cl)c5)C4(C)C)cc3)cn2)C(C)(C)C)cc1 [Example 425]			< 50	> 71	
Cc1ncsc1-c1ccc([C@H](C)NC(=O)[C@@H]2C[C@@H](O)CN2C(=O)[C@H](C(C)C)n2cc(Oc3cccc(OCCCCCOc4ccc(N5C(=S)N(c6ccc(C#N)c(C(F)(F)F)c6)C(=O)C5(C)C)cc4)c3)cn2)nc1 [Example 426]	< 25	> 501			
Cc1ncsc1-c1ccc([C@H](C)NC(=O)[C@@H]2C[C@@H](O)CN2C(=O)[C@@H](C(C)C)n2cc(OCCCOCCCCCOc3ccc(N4C(=S)N(c5ccc(C#N)c(C(F)(F)F)c5)C(=O)C4(C)C)cc3)cn2)nc1 [Example 427]	< 25	> 501			
Cc1ncsc1-c1ccc([C@H](C)NC(=O)[C@@H]2C[C@@H](O)CN2C(=O)[C@H](C(C)C)n2cc(OCCCOCCCCCOc3ccc(N4C(=S)N(c5ccc(C#N)c(C(F)(F)F)c5)C(=O)C4(C)C)cc3)cn2)nc1 [Example 428]	< 25	> 501			
Cc1ncsc1-c1ccc([C@H](C)NC(=O)[C@@H]2C[C@@H](O)CN2C(=O)[C@@H](NC(=O)COc2ccc(OC3CCN(c4ccc(N5C(=S)N(c6ccc(C#N)c(C(F)(F)F)c6)C(=O)C5(C)C)cn4)CC3)nc2)C(C)(C)C)cc1 [Example 429]	26 to 50	> 501			
Cc1ncsc1-c1ccc([C@H](C)NC(=O)[C@@H]2C[C@@H](O)CN2C(=O)[C@@H](NC(=O)COc2ccc(OC3CCN(c4ccc(N5C(=S)N(c6ccc(C#N)c(C(F)(F)F)c6)C(=O)C5(C)C)cc4)CC3)nc2)C(C)(C)C)cc1 [Example 430]	< 25	> 501			
Cc1ncsc1-c1ccc([C@H](C)NC(=O)[C@@H]2C[C@@H](O)CN2C(=O)[C@@H](NC(=O)CNC(=O)c2ccc(Oc3ccc(C(=O)N[C@H]4C(C)(C)[C@H](Oc5ccc(C#N)c(Cl)c5)C4(C)C)cn3)cc2)C(C)(C)C)nc1 [Example 432]			> 501	< 25	
Cc1ncsc1-c1ccc([C@H](C)NC(=O)[C@@H]2C[C@@H](O)CN2C(=O)[C@@H](NC(=O)COc2ccc(OC3CCC(Oc4ccc(C(=O)N[C@H]5C(C)(C)[C@H](Oc6ccc(C#N)c(Cl)c6)C5(C)C)cc4)CC3)nc2)C(C)(C)C)cc1 (some centres unmarked) [Example 433]			< 50	51 to 70	
Cc1ncsc1-c1ccc([C@H](C)NC(=O)[C@@H]2C[C@@H](O)CN2C(=O)[C@@H](C(C)C)n2cc(OCCCOCCCCCOc3ccc(N4C(=S)N(c5ccc(C#N)c(C(F)(F)F)c5)C(=O)C4(C)C)cc3)cn2)cc1 [Example 434]		> 501			
Cc1ncsc1-c1ccc([C@H](C)NC(=O)[C@@H]2C[C@@H](O)CN2C(=O)[C@H](C(C)C)n2cc(OCCCOCCCCCOc3ccc(N4C(=S)N(c5ccc(C#N)c(C(F)(F)F)c5)C(=O)C4(C)C)cc3)cn2)cc1 [Example 435]		> 501			
Cc1ncsc1-c1ccc([C@H](C)NC(=O)[C@@H]2C[C@@H](O)CN2C(=O)[C@@H](C(C)C)n2cc(OCC3CCN(c4ccc(C(=O)N[C@H]5C(C)(C)[C@H](Oc6ccc(C#N)c(Cl)c6)C5(C)C)cc4)CC3)cn2)cc1 [Example 436]			> 501	51 to 70	
Cc1ncsc1-c1ccc([C@H](C)NC(=O)[C@@H]2C[C@@H](O)CN2C(=O)[C@H](C(C)C)n2cc(OCC3CCN(c4ccc(C(=O)N[C@H]5C(C)(C)[C@H](Oc6ccc(C#N)c(Cl)c6)C5(C)C)cc4)CC3)cn2)cc1 [Example 437]			> 501		
Cc1ncsc1-c1ccc([C@H](C)NC(=O)[C@@H]2C[C@@H](O)CN2C(=O)[C@@H](NC(=O)COCCN2CCN(c3ccc(C(=O)N[C@H]4C(C)(C)[C@H](Oc5ccc(C#N)c(Cl)c5)C4(C)C)cc3)CC2)C(C)(C)C)cc1 [Example 438]			< 50	> 71	
Cc1ncsc1-c1ccc([C@H](C)NC(=O)[C@@H]2C[C@@H](O)CN2C(=O)[C@@H](NC(=O)COCC2CCN(c3ccc(C(=O)N[C@H]4C(C)(C)[C@H](Oc5ccc(C#N)c(Cl)c5)C4(C)C)cn3)CC2)C(C)(C)C)cc1 [Example 442]			< 50	> 71	
Cc1nccn1-c1ccc([C@H](C)NC(=O)[C@@H]2C[C@@H](O)CN2C(=O)[C@@H](NC(=O)CNC(=O)c2ccc(Oc3ccc(C(=O)N[C@H]4C(C)(C)[C@H](Oc5ccc(C#N)c(Cl)c5)C4(C)C)cc3)cc2)C(C)(C)C)cc1 [Example 444]			< 50	> 71	
Cc1ncsc1-c1ccc([C@H](C)NC(=O)[C@@H]2C[C@@H](O)CN2C(=O)[C@@H](NC(=O)COCCNc2ccc(-c3ccc(C(=O)N[C@H]4C(C)(C)[C@H](Oc5ccc(C#N)c(Cl)c5)C4(C)C)cc3)cn2)C(C)(C)C)cc1 [Example 445]			< 50	> 71	
Cc1ncsc1-c1ccc(CNC(=O)[C@@H]2C[C@@H](O)CN2C(=O)[C@@H](NC(=O)COCCNc2ccc(-c3ccc(C(=O)N[C@H]4C(C)(C)[C@H](Oc5ccc(C#N)c(Cl)c5)C4(C)C)cc3)cn2)C(C)(C)C)nc1 [Example 446]			> 501	26 to 50	
Cc1ncsc1-c1ccc([C@H](C)NC(=O)[C@@H]2C[C@@H](O)CN2C(=O)[C@@H](NC(=O)COCC2CCN(c3ccc(C(=O)N[C@H]4C(C)(C)[C@H](Oc5ccc(C#N)c(Cl)c5)C4(C)C)cc3)CC2)C(C)(C)C)cc1 [Example 447]			< 50	> 71	
